Where two headings read alike, the source gives them in different places.
Assays:
cdk2/cyclinE = cdk2/cyclinE (Homo sapiens, UniProt P24941); assay: Cyclin-Dependent Kinase Assay cdk2/cyclinE
cdc2/cyclinB = cdc2/cyclinB (Homo sapiens, UniProt P06493); assay: Cyclin-Dependent Kinase Assay cdc2/cyclinB
Cdk5/p25 = Cdk5/p25 (Homo sapiens, UniProt Q00535); assay: Cyclin-Dependent Kinase 5 High Throughput Screening (cdk5-HTS) Assay; format: biochemical; details: high throughput screen
Method: Cyclin-Dependent Kinase 5 High Throughput Screening (cdk5-HTS) Assay
Enzyme assays for IC50 determinations were performed in 96-Pierce Reacti-Bind™ White Opaque Glutatione Coated Plates (Cat. No. 15240B).
The total volume was 0.100 mL containing a final concentration of 50 mM TRIS (tris[hydroxymethyl]aminomethane) at pH 7.4, 50 mM NaCl, 10 mM MgCl2, 5 mM dithiothreitol, 20 μM ATP containing 16 μCi/mL of Redivue[y33P]ATP (Amersham Pharmacia Biotech Cat. No. AH9968), 1.0 μg/mL Cdk5/p25, 20 μg/mL GST-RbCOOH, and appropriate dilutions of a compound of the present invention. The reaction was started by adding[^33P]ATP, and the plate was shaken for 30 seconds, then incubated at room temperature for 30 minutes. The reaction was terminated by addition of 0.05 mL of 120 mM EDTA. The plate was kept at room temperature for 45 minutes to allow substrate to bind to the walls of the plate. The wells were then washed three times with 0.2 mL of 1×PBS. Once thoroughly dry, 0.140 mL of MicroScint™2O (Packard Bioscience Cat. No. 87-9081) cocktail was added to all wells. The incorporation of ^33P was determined with a beta plate counter (Packard Topcount).

cdk4/D = cdk4/D (Homo sapiens, UniProt P11802); assay: Cyclin-Dependent Kinase 4 (cdk4) Assay; format: biochemical; details: read-out: cdk4/D IC50
Sequence of cdk4/D (P11802 whole entry): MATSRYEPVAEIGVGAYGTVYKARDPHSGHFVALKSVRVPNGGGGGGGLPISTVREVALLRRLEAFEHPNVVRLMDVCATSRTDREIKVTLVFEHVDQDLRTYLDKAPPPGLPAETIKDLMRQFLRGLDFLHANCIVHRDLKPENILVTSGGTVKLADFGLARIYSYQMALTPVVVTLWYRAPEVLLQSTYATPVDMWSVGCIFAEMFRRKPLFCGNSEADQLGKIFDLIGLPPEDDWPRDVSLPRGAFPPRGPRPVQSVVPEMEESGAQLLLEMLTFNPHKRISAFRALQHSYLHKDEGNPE
Sequence of cdk4/D (P24385 whole entry, further chain): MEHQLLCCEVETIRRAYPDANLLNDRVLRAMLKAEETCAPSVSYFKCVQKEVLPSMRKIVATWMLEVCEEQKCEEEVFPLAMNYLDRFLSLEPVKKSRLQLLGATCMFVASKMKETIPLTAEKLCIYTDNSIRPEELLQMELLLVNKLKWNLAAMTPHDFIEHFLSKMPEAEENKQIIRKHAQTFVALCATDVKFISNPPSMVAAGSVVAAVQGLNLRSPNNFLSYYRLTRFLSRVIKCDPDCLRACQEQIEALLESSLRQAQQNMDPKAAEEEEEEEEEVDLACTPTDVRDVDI
Method: A typical assay, for instance, measures inhibitory activity against the cyclin D dependent kinase 4 enzyme (cdk4/D). […] The cdk4 assay was carried out as follows.
Cyclin-Dependent Kinase 4 (cdk4) Assay
All components except the ATP were added to the wells, and the plate was placed on a plate mixer for 2 minutes. The reaction was started by adding [^32P]ATP and the plate was incubated at 25° C. for 15 minutes. The reaction was terminated by addition of 0.1 mL of 20% trichloroacetic acid (TCA). The plate was kept at 4° C. for at least 1 hour to allow the substrate to precipitate. The wells were then washed five times with 0.2 mL of 10% TCA and ^32P incorporation was determined with a beta plate counter (Wallac Inc., Gaithersburg, Md.).

cdk2/cyclinA = cdk2/cyclinA (Homo sapiens, UniProt P24941); assay: Cyclin-Dependent Kinase Assay cdk2/cyclinA

Sequence of cdc2/cyclinB (P06493 whole entry): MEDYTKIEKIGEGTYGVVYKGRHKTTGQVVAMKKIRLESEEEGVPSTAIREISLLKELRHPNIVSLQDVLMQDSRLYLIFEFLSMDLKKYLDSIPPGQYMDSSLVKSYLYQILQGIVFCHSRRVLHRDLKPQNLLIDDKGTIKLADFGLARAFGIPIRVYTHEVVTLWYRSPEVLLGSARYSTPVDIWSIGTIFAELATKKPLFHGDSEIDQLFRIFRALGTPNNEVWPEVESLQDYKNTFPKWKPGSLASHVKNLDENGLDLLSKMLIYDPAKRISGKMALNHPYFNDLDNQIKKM
Sequence of cdc2/cyclinB (P14635 whole entry, further chain): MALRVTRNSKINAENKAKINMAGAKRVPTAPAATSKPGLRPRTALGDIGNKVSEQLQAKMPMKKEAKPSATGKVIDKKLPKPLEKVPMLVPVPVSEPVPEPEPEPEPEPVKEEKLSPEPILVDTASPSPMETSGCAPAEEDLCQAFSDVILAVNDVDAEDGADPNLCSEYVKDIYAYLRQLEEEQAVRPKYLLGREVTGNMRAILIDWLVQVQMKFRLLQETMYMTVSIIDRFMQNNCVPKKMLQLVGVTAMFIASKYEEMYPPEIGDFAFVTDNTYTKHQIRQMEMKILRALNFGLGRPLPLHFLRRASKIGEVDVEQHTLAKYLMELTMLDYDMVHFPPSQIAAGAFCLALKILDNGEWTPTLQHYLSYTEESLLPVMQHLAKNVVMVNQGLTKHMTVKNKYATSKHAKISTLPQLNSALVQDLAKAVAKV

IC50 (cdk2/cyclinE; cdk2/E IC50)	IC50 (cdc2/cyclinB)	IC50 (Cdk5/p25)	IC50 (cdk4/D)	IC50 (cdk2/cyclinA; cdk2/A IC50)	Compound	IC50 (cdk2/cyclinE; read-out: cdk2/E IC50)	IC50 (cdc2/cyclinB; read-out: cdk1/B IC50)	IC50 (cdk2/cyclinA; read-out: cdk2/A IC50)
230 nM	480 nM	71 nM	200 nM	670 nM	CCC(CC)n1c(=O)ccc2cnc(Nc3ccc(OC(F)(F)F)cc3)nc21 [Example 515, 8-(1-Ethyl-propyl)-2-(4-trifluoromethoxy-phenylamino)-8H-pyrido[2,3-d]pyrimidin-7-one]			
630 nM	510 nM	210 nM	1500 nM	780 nM	O=c1ccc2cnc(Nc3ccc(Cl)c(Cl)c3)nc2n1C1CCCC1 [Example 532, 8-Cyclopentyl-2-(3,4-dichloro-phenylamino)-8H-pyrido[2,3-d]pyrimidin-7-one]			
48.9 nM	107 nM	84.7 nM	720 nM	408 nM	CCCCn1c(=O)ccc2cnc(Nc3cccc(I)c3)nc21 [Example 375, 8-Butyl-2-(3-iodo-phenylamino)-8H-pyrido[2,3-d]pyrimidin-7-one]			
		647 nM	232 nM		8-(1-Ethyl-propyl)-2-(3-trifluoromethyl-phenylamino)-8H-pyrido[2,3-d]pyrimidin-7-one [Example 485]	131 nM	241 nM	600 nM
690 nM	955 nM	215 nM	1110 nM	380 nM	CC(C)n1c(=O)ccc2cnc(Nc3ccc4cn[nH]c4c3)nc21 [Example 438, 2-(1H-Indazol-6-ylamino)-8-isopropyl-8H-pyrido[2,3-d]pyrimidin-7-one]			
520 nM	470 nM	54 nM	350 nM	400 nM	Cc1ccc(Nc2ncc3ccc(=O)n(C(C)C)c3n2)cc1C [Example 434, 2-(3,4-Dimethyl-phenylamino)-8-isopropyl-8H-pyrido[2,3-d]pyrimidin-7-one]			
680 nM	500 nM	300 nM		1100 nM	CCCn1c(=O)ccc2cnc(Nc3ccc(O)c(CN4CCOCC4)c3)nc21 [Example 355, 2-(4-Hydroxy-3-morpholin-4-ylmethyl-phenylamino)-8-propyl-8H-pyrido[2,3-d]pyrimidin-7-one]			
	73 nM	96 nM	120 nM	130 nM	Nc1c(Cl)cc(Nc2ncc3ccc(=O)n(C4CCCC4)c3n2)cc1Cl [Example 557, 2-(4-Amino-3,5-dichloro-phenylamino)-8-cyclopentyl-8H-pyrido[2,3-d]pyrimidin-7-one]			
120 nM	280 nM	110 nM		290 nM	CCCn1c(=O)ccc2cnc(Nc3ccc(F)c(F)c3)nc21 [Example 343, 2-(3,4-Difluoro-phenylamino)-8-propyl-8H-pyrido[2,3-d]pyrimidin-7-one]			
523 nM	455 nM	525 nM		970 nM	O=c1ccc2cnc(Nc3cc(Cl)c(O)c(Cl)c3)nc2n1CC(F)(F)F [Example 598, 2-(3,5-Dichloro-4-hydroxy-phenylamino)-8-(2,2,2-trifluoro-ethyl)-8H-pyrido[2,3-d]pyrimidin-7-one]			
60 nM	88 nM	10 nM		78 nM	CCC(C)n1c(=O)ccc2cnc(Nc3ccc(OC)c(F)c3)nc21 (stereo not drawn) [Example 462, 8-sec-Butyl-2-(3-fluoro-4-methoxy-phenylamino)-8H-pyrido[2,3-d]pyrimidin-7-one]			
840 nM	930 nM	470 nM		1200 nM	CCn1c(=O)ccc2cnc(Nc3cc(F)cc(F)c3)nc21 [Example 303, 2-(3,5-Difluoro-phenylamino)-8-ethyl-8H-pyrido[2,3-d]pyrimidin-7-one]			
	190 nM	45 nM	340 nM	340 nM	O=c1ccc2cnc(Nc3ccc(F)c(C(F)(F)F)c3)nc2n1C1CCCC1 [Example 534, 8-Cyclopentyl-2-(4-fluoro-3-trifluoromethyl-phenylamino)-8H-pyrido[2,3-d]pyrimidin-7-one]			
670 nM	550 nM	240 nM		1100 nM	CCn1c(=O)ccc2cnc(Nc3cccc(C(F)(F)F)c3)nc21 [Example 305, 8-Ethyl-2-(3-trifluoromethyl-phenylamino)-8H-pyrido[2,3-d]pyrimidin-7-one]			
530 nM	880 nM	200 nM		1100 nM	CCCn1c(=O)ccc2cnc(Nc3cc(F)cc(F)c3)nc21 [Example 349, 2-(3,5-Difluoro-phenylamino)-8-propyl-8H-pyrido[2,3-d]pyrimidin-7-one]			
	400 nM	120 nM	310 nM	630 nM	Cc1ccc(Nc2ncc3ccc(=O)n(C(C)C)c3n2)cc1NS(C)(=O)=O [Example 439, N-[5-(8-Isopropyl-7-oxo-7,8-dihydro-pyrido[2,3-d]pyrimidin-2-ylamino)-2-methyl-phenyl]-methanesulfonamide]			
	650 nM	160 nM	460 nM	320 nM	O=c1ccc2cnc(Nc3ccc(C(F)(F)F)cc3)nc2n1CC1CC1 [Example 590, 8-Cyclopropylmethyl-2-(4-trifluoromethyl-phenylamino)-8H-pyrido[2,3-d]pyrimidin-7-one]			
255 nM	1320 nM	699 nM		882 nM	CCCCn1c(=O)ccc2cnc(Nc3c(F)cc(F)cc3F)nc21 [Example 366, 8-Butyl-2-(2,4,6-trifluoro-phenylamino)-8H-pyrido[2,3-d]pyrimidin-7-one]			
320 nM	450 nM	200 nM		870 nM	CCCCn1c(=O)ccc2cnc(Nc3cc(OC)c(OC)c(OC)c3)nc21 [Example 389, 8-Butyl-2-(3,4,5-trimethoxy-phenylamino)-8H-pyrido[2,3-d]pyrimidin-7-one]			
240 nM	280 nM	81 nM		760 nM	CCC(CC)n1c(=O)ccc2cnc(Nc3cc(OC)c(OC)c(OC)c3)nc21 [Example 501, 8-(1-Ethyl-propyl)-2-(3,4,5-trimethoxy-phenylamino)-8H-pyrido[2,3-d]pyrimidin-7-one]			
1100 nM	1800 nM	160 nM		2600 nM	CC(C)n1c(=O)ccc2cnc(Nc3ccc(C#N)c(C#N)c3)nc21 [Example 423, 4-(8-Isopropyl-7-oxo-7,8-dihydro-pyrido[2,3-d]pyrimidin-2-ylamino)-phthalonitrile]			
320 nM	710 nM	230 nM		460 nM	CCCn1c(=O)ccc2cnc(Nc3cccc(NC(C)=O)c3)nc21 [Example 353, N-[3-(7-Oxo-8-propyl-7,8-dihydro-pyrido[2,3-d]pyrimidin-2-ylamino)-phenyl]-acetamide]			
260 nM	170 nM	38 nM		370 nM	CCC(C)n1c(=O)ccc2cnc(Nc3cccc(C(F)(F)F)c3)nc21 (stereo not drawn) [Example 477, 8-sec-Butyl-2-(3-trifluoromethyl-phenylamino)-8H-pyrido[2,3-d]pyrimidin-7-one]			
190 nM	1300 nM	570 nM		710 nM	O=c1ccc2cnc(Nc3ccc(Br)c(C(F)(F)F)c3)nc2n1CC1CC1 [Example 589, 2-(4-Bromo-3-trifluoromethyl-phenylamino)-8-cyclopropylmethyl-8H-pyrido[2,3-d]pyrimidin-7-one]			

Compound	IC50 (cdk2/cyclinE; cdk2/E IC50)	IC50 (cdc2/cyclinB)	IC50 (Cdk5/p25)	IC50 (cdk4/D)	IC50 (cdk2/cyclinA; cdk2/A IC50)	IC50 (cdk2/cyclinE; read-out: cdk2/E IC50)	IC50 (cdc2/cyclinB; read-out: cdk1/B IC50)	IC50 (cdk2/cyclinA; read-out: cdk2/A IC50)
CCCCn1c(=O)ccc2cnc(Nc3ccc(C(N)=O)cc3)nc21 [Example 371, 4-(S-Butyl-7-oxo-7,8-dihydro-pyrido[2,3-d]pyrimidin-2-ylamino)-benzamide]			234 nM	331 nM		286 nM	372 nM	699 nM
CCCn1c(=O)ccc2cnc(Nc3ccc(Cl)c(C(F)(F)F)c3)nc21 [Example 312, 2-(4-Chloro-3-trifluoromethyl-phenylamino)-8-propyl-8H-pyrido[2,3-d]pyrimidin-7-one]			112 nM			330 nM	268 nM	2670 nM

From US20040224958A1, “Pyridopyrimidinone derivatives for treatment of neurodegenerative disease” (priority 2000, published 2004)
